The text below walks through data of patent US20240384268A1, “Oligonucleotides” (Hudson Institute of Medical Research, priority 2021, published 2024).

In the oligonucleotide strings, read from the 5' end, every base follows the letter of its sugar. An asterisk marks phosphorothioate; unmarked linkages are phosphodiester. Other units and linkages are bracketed, terminal groups are in braces. A string of capitals states the bases alone. d = 2'-deoxy (DNA); m = 2'-O-methyl

The target of the data set is T1, human TLR7 (Homo sapiens, UniProt Q9NYK1).
T1 construct: HA; host or cells: 293XL-hTLR7-HA (HEK293)
T1 sequence (Q9NYK1 27-1049): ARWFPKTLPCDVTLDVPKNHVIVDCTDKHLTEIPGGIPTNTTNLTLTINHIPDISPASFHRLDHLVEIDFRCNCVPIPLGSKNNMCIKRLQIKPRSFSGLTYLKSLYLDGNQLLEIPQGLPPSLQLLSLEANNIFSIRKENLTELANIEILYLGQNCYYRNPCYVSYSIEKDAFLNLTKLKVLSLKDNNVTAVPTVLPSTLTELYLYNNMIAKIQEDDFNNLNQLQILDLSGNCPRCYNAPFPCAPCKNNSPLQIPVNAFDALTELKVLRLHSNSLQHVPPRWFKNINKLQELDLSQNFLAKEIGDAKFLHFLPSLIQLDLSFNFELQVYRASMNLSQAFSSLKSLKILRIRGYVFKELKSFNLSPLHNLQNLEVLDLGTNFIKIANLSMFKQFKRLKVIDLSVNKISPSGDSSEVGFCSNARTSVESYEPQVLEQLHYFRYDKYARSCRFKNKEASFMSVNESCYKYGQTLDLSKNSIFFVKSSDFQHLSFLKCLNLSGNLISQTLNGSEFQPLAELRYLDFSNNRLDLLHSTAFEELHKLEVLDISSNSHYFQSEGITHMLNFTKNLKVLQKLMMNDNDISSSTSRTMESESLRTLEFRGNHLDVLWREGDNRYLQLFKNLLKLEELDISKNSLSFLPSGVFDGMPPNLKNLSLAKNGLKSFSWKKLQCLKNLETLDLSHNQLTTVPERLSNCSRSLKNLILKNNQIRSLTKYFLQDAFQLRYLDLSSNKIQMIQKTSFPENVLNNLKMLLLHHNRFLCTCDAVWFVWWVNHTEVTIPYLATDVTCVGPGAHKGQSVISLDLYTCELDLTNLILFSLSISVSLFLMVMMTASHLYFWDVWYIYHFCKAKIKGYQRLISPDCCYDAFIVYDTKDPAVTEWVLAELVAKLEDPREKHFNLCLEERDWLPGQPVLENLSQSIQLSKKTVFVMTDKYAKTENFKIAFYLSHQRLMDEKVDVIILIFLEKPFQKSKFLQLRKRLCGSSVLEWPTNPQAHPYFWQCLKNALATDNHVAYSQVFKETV
Nature of the data set: HEK-TLR7 NF-κB-luciferase reporter, R848 stimulation. It is filed as cell-based. Conditions: HEK-TLR7; 100 nM ASO; percentage of R848 without ASO (Alharbi et al., 2020).
As to “mU*mA*mA*mA*mA*T*A*A*G*G*G*G*A*A*T*mA*mG*mG*mG*mG (mU*mA*mA*mA*mA*dT*dA*dA*dG*dG*dG*dG*dA*dA*dT*mA*mG*mG*mG*mG) [[CDKN2B-AS1]80]”, the “TLR7-100 nM: averaged NF-κB-Luciferase relative to R848” value came out at 40.95%.

With “mU*mC*mC*mC*mA*A*C*T*C*T*T*C*T*A*A*mC*mU*mC*mG*mU (mU*mC*mC*mC*mA*dA*dC*dT*dC*dT*dT*dC*dT*dA*dA*mC*mU*mC*mG*mU; antisense) [[LINC-PINT]1284 KL]”, the “TLR7-100 nM: averaged NF-κB-Luciferase relative to R848” value stood at 40.79%.

For “mU*mC*mC*mC*mA*T*C*C*C*T*T*C*T*G*C*mU*mG*mA*mC*mA (UCCCATCCCTTCTGCUGACA; sugars from the 5' end m5 d10 m5, all phosphorothioate, methylation of C not given here) [[LINC-PINT]101]”, the “TLR7-100 nM: averaged NF-κB-Luciferase relative to R848” value was 43.08%.

With “mU*mC*mU*mC*mC*A*T*G*T*C*C*C*A*G*G*mC*mC*mU*mC*mC (mU*mC*mU*mC*mC*dA*dT*dG*dT*dC*dC*dC*dA*dG*dG*mC*mC*mU*mC*mC; antisense) [[CDKN2B-AS1]2230]”, the “TLR7-100 nM: averaged NF-κB-Luciferase relative to R848” value came to 43.45%.

“mU*mC*mU*mC*mU*C*T*G*G*T*C*C*C*A*T*mC*mC*mC*mU*mU (mU*mC*mU*mC*mU*dC*dT*dG*dG*dT*dC*dC*dC*dA*dT*mC*mC*mC*mU*mU; antisense) [[LINC-PINT]110]”: the “TLR7-100 nM: averaged NF-κB-Luciferase relative to R848” value was 43.82%.

For “mU*mC*mU*mC*mU*G*G*T*C*C*C*A*T*C*C*mC*mU*mU*mC*mU (UCUCUGGTCCCATCCCUUCU; antisense; sugars from the 5' end m5 d10 m5, all phosphorothioate, methylation of C not given here) [[LINC-PINT]108]”, the “TLR7-100 nM: averaged NF-κB-Luciferase relative to R848” value was determined as 78.25%.

Regarding “mU*mC*mU*mG*mG*T*C*C*C*A*T*C*C*C*T*mU*mC*mU*mG*mC (UCUGGTCCCATCCCTUCUGC; antisense; sugars from the 5' end m5 d10 m5, all phosphorothioate, methylation of C not given here) [[LINC-PINT]106]”, the “TLR7-100 nM: averaged NF-κB-Luciferase relative to R848” value was 29.42%.

On to “mU*mG*mA*mC*mA*A*A*A*C*A*A*T*A*A*T*mA*mA*mC*mA*mG (mU*mG*mA*mC*mA*dA*dA*dA*dC*dA*dA*dT*dA*dA*dT*mA*mA*mC*mA*mG) [[LINC-PINT]384]”, for which the “TLR7-100 nM: averaged NF-κB-Luciferase relative to R848” value stood at 36.68%.

“mU*mG*mA*mC*mA*T*T*T*C*G*T*G*G*C*T*mC*mC*mU*mA*mC (mU*mG*mA*mC*mA*dT*dT*dT*dC*dG*dT*dG*dG*dC*dT*mC*mC*mU*mA*mC; antisense) [[LINC-PINT]523 KL]”: the “TLR7-100 nM: averaged NF-κB-Luciferase relative to R848” value came out at 33.56%.

Turning to “mU*mG*mA*mU*mG*A*T*G*C*T*T*G*C*A*G*mG*mA*mG*mG*mC (mU*mG*mA*mU*mG*dA*dT*dG*dC*dT*dT*dG*dC*dA*dG*mG*mA*mG*mG*mC) [[LINC-PINT|283.1]”, the “TLR7-100 nM: averaged NF-κB-Luciferase relative to R848” value is 25.50%.

With “mU*mG*mG*mC*mG*T*A*G*T*T*T*C*T*C*T*mU*mC*mC*mU*mC (mU*mG*mG*mC*mG*dT*dA*dG*dT*dT*dT*dC*dT*dC*dT*mU*mC*mC*mU*mC; antisense) [[LINC-PINT]937.1]”, the “TLR7-100 nM: averaged NF-κB-Luciferase relative to R848” value is recorded as 32.81%.

On to “mU*mG*mU*mG*mA*A*A*A*G*A*T*T*A*T*C*mU*mU*mC*mU*mU (UGUGAAAAGATTATCUUCUU; sugars from the 5' end m5 d10 m5, all phosphorothioate, methylation of C not given here) [[CDKN2B-AS1]2137]”, for which the “TLR7-100 nM: averaged NF-κB-Luciferase relative to R848” value was 34.51%.

On to “mU*mG*mU*mU*mU*C*C*C*C*G*G*A*G*A*G*mC*mA*mA*mU*mG (UGUUUCCCCGGAGAGCAAUG; antisense; sugars from the 5' end m5 d10 m5, all phosphorothioate, methylation of C not given here) [[LINC-PINT]501 KL]”, for which the “TLR7-100 nM: averaged NF-κB-Luciferase relative to R848” value is 30.90%.

For “mU*mU*mA*mA*mA*T*A*A*T*C*T*A*G*T*T*mU*mG*mA*mA*mG (UUAAATAATCTAGTTUGAAG; sugars from the 5' end m5 d10 m5, all phosphorothioate, methylation of C not given here) [[CDKN2B-AS1]132]”, the “TLR7-100 nM: averaged NF-κB-Luciferase relative to R848” value is 25.66%.

Regarding “mU*mU*mA*mG*mC*T*C*C*T*T*G*C*C*T*C*mG*mU*mU*mC*mC (mU*mU*mA*mG*mC*dT*dC*dC*dT*dT*dG*dC*dC*dT*dC*mG*mU*mU*mC*mC; antisense) [[LINC-PINT] 1222]”, the “TLR7-100 nM: averaged NF-κB-Luciferase relative to R848” value stood at 31.67%.

Regarding “mU*mU*mC*mU*mC*T*C*T*G*G*T*C*C*C*A*mU*mC*mC*mC*mU (mU*mU*mC*mU*mC*dT*dC*dT*dG*dG*dT*dC*dC*dC*dA*mU*mC*mC*mC*mU; antisense) [[LINC-PINT]111]”, the “TLR7-100 nM: averaged NF-κB-Luciferase relative to R848” value turned out to be 26.22%.

Consider “mU*mU*mG*mG*mC*C*T*G*T*G*G*A*T*G*C*mU*mU*mU*mG*mU (mU*mU*mG*mG*mC*dC*dT*dG*dT*dG*dG*dA*dT*dG*dC*mU*mU*mU*mG*mU) [[LINC-PINT]2673.1]”, for which the “TLR7-100 nM: averaged NF-κB-Luciferase relative to R848” value amounted to 21.43%.

As to “mU*mU*mG*mU*mG*A*A*A*A*G*A*T*T*A*T*mC*mU*mU*mC*mU (mU*mU*mG*mU*mG*dA*dA*dA*dA*dG*dA*dT*dT*dA*dT*mC*mU*mU*mC*mU) [[CDKN2B-AS1]2138]”, the “TLR7-100 nM: averaged NF-κB-Luciferase relative to R848” value was 35.02%.

Turning to “mU*mU*mU*mG*mA*A*A*T*T*C*A*G*A*A*G*mA*mU*mU*mU*mG (mU*mU*mU*mG*mA*dA*dA*dT*dT*dC*dA*dG*dA*dA*dG*mA*mU*mU*mU*mG) [[LINC PINT|2690]”, the “TLR7-100 nM: averaged NF-κB-Luciferase relative to R848” value is listed as 35.07%.
